Measurements reported in ChEMBL document CHEMBL3632469, “Discovery of dihydroquinazolinone derivatives as potent, selective, and CNS-penetrant M(1) and M(4) muscarinic acetylcholine receptors agonists” (Bioorg Med Chem Lett, 2015).

Legend:
[1] = molecular target: T1, Muscarinic acetylcholine receptor M1 (Homo sapiens) (UniProt P11229); experiment: Agonist activity at human muscarinic M1 acetylcholine receptor expressed in CHO cells assessed as calcium mobilization at 0.3 uM by FLIPR assay; assay type: functional, cell-based
T1 sequence (whole entry): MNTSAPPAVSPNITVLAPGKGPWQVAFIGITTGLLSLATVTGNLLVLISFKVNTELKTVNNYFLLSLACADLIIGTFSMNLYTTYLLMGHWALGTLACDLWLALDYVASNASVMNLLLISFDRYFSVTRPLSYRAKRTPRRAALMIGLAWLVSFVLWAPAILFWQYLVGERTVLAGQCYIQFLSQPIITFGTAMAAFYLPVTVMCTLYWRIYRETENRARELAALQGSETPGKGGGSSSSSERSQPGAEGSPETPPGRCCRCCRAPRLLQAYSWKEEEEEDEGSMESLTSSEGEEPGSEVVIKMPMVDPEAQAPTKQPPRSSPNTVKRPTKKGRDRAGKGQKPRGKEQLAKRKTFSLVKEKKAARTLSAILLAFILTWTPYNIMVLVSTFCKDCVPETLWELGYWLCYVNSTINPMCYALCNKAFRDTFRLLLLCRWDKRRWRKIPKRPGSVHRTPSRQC

[2] = molecular target: T2, Muscarinic acetylcholine receptor M4 (Homo sapiens) (UniProt P08173); experiment: Partial agonist activity at human muscarinic M4 acetylcholine receptor expressed in CHO cells co-expressing Galpha16 assessed as calcium mobilization at 0.3 uM by FLIPR assay; assay type: functional, cell-based
T2 sequence (whole entry): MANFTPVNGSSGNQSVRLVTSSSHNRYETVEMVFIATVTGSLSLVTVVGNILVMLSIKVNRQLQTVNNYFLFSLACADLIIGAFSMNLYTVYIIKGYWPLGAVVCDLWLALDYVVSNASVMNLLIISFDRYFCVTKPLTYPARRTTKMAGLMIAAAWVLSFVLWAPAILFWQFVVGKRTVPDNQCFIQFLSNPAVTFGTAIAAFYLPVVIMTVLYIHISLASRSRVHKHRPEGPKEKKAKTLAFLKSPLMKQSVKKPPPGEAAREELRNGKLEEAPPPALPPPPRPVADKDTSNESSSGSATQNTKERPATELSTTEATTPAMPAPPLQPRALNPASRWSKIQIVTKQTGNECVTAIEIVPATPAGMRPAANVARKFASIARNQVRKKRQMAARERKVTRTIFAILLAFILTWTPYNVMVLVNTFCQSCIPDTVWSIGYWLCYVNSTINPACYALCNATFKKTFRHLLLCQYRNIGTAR

Cytochrome P450 1A2 = Cytochrome P450 1A2 (Homo sapiens, UniProt P05177); experiment: Inhibition of CYP1A2 (unknown origin); assay type: ADME
Cytochrome P450 2C19 = Cytochrome P450 2C19 (Homo sapiens, UniProt P33261); experiment: Inhibition of CYP2C19 (unknown origin); assay type: ADME
[3] = molecular target: Adrenergic receptor alpha-1 (Homo sapiens) (UniProt P35348+P25100+P35368); experiment: Agonist activity at adrenergic a1 receptor (unknown origin) expressed in CHO cells assessed as calcium mobilization at 3 uM; assay type: functional, cell-based
[4] = molecular target: Cannabinoid receptor 1 (Homo sapiens) (UniProt P21554); experiment: Agonist activity at CB1 receptor (unknown origin) expressed in CHO cells assessed as calcium mobilization at 3 uM; assay type: functional, cell-based
[5] = molecular target: D(1A) dopamine receptor (Homo sapiens) (UniProt P21728); experiment: Agonist activity at dopamine D1 receptor (unknown origin) expressed in CHO cells assessed as calcium mobilization at 3 uM; assay type: functional, cell-based
CHO = experiment: Agonist activity at GaBaB receptor (unknown origin) expressed in CHO cells assessed as calcium mobilization at 3 uM; assay type: cell-based; settings: Homo sapiens
[6] = molecular target: Cysteinyl leukotriene receptor 1 (Homo sapiens) (UniProt Q9Y271); experiment: Agonist activity at CysLT1 receptor (unknown origin) expressed in CHO cells assessed as calcium mobilization at 3 uM; assay type: functional, cell-based
[7] = molecular target: Delta-type opioid receptor (Homo sapiens) (UniProt P41143); experiment: Agonist activity at opiate delta1 receptor (unknown origin) expressed in CHO cells assessed as calcium mobilization at 3 uM; assay type: functional, cell-based
[8] = molecular target: Nociceptin receptor (Homo sapiens) (UniProt P41146); experiment: Agonist activity at OPRL1 receptor (unknown origin) expressed in CHO cells assessed as calcium mobilization at 3 uM; assay type: functional, cell-based
[9] = molecular target: 5-hydroxytryptamine receptor 4 (Homo sapiens) (UniProt Q13639); experiment: Agonist activity at 5-HT4B receptor (unknown origin) expressed in CHO cells assessed as calcium mobilization at 3 uM; assay type: functional, cell-based
[10] = molecular target: Somatostatin receptor type 2 (Homo sapiens) (UniProt P30874); experiment: Agonist activity at SSTR2 receptor (unknown origin) expressed in CHO cells assessed as calcium mobilization at 3 uM; assay type: functional, cell-based
[11] = molecular target: P2Y purinoceptor 1 (Homo sapiens) (UniProt P47900); experiment: Agonist activity at P2Y1 receptor (unknown origin) expressed in CHO cells assessed as calcium mobilization at 3 uM; assay type: functional, cell-based
[12] = molecular target: Adenosine receptor A2a (Homo sapiens) (UniProt P29274); experiment: Antagonist activity at adenosine a2a receptor (unknown origin) expressed in CHO cells assessed as calcium mobilization at 3 uM; assay type: functional, cell-based
[13] = molecular target: Alpha-2C adrenergic receptor (Homo sapiens) (UniProt P18825); experiment: Antagonist activity at adrenergic a2C receptor (unknown origin) expressed in CHO cells assessed as calcium mobilization at 3 uM; assay type: functional, cell-based
[14] = molecular target: Beta-2 adrenergic receptor (Homo sapiens) (UniProt P07550); experiment: Antagonist activity at adrenergic beta2 receptor (unknown origin) expressed in CHO cells assessed as calcium mobilization at 3 uM; assay type: functional, cell-based
[15] = molecular target: Histamine H1 receptor (Homo sapiens) (UniProt P35367); experiment: Antagonist activity at histamine H1 receptor (unknown origin) expressed in CHO cells assessed as calcium mobilization at 3 uM; assay type: functional, cell-based
[16] = molecular target: Cysteinyl leukotriene receptor 2 (Homo sapiens) (UniProt Q9NS75); experiment: Antagonist activity at CysLT2 receptor (unknown origin) expressed in CHO cells assessed as calcium mobilization at 3 uM; assay type: functional, cell-based
[17] = molecular target: Neuropeptide Y receptor type 2 (Homo sapiens) (UniProt P49146); experiment: Antagonist activity at NPY2 receptor (unknown origin) expressed in CHO cells assessed as calcium mobilization at 3 uM; assay type: functional, cell-based
[18] = molecular target: Kappa-type opioid receptor (Homo sapiens) (UniProt P41145); experiment: Antagonist activity at opiate kappa receptor (unknown origin) expressed in CHO cells assessed as calcium mobilization at 3 uM; assay type: functional, cell-based
[19] = molecular target: 5-hydroxytryptamine receptor 1F (Homo sapiens) (UniProt P30939); experiment: Antagonist activity at 5-HT1F receptor (unknown origin) expressed in CHO cells assessed as calcium mobilization at 3 uM; assay type: functional, cell-based
[20] = molecular target: 5-hydroxytryptamine receptor 2C (Homo sapiens) (UniProt P28335); experiment: Antagonist activity at 5-HT2C receptor (unknown origin) expressed in CHO cells assessed as calcium mobilization at 3 uM; assay type: functional, cell-based
[21] = molecular target: 5-hydroxytryptamine receptor 5A (Homo sapiens) (UniProt P47898); experiment: Antagonist activity at 5-HT5a receptor (unknown origin) expressed in CHO cells assessed as calcium mobilization at 3 uM; assay type: functional, cell-based
[22] = molecular target: Adenosine receptor A2b (Homo sapiens) (UniProt P29275); experiment: Agonist activity at adenosine a2B receptor (unknown origin) expressed in CHO cells assessed as calcium mobilization at 3 uM

Chain of Cytochrome P450 2C19 (P33261 whole entry): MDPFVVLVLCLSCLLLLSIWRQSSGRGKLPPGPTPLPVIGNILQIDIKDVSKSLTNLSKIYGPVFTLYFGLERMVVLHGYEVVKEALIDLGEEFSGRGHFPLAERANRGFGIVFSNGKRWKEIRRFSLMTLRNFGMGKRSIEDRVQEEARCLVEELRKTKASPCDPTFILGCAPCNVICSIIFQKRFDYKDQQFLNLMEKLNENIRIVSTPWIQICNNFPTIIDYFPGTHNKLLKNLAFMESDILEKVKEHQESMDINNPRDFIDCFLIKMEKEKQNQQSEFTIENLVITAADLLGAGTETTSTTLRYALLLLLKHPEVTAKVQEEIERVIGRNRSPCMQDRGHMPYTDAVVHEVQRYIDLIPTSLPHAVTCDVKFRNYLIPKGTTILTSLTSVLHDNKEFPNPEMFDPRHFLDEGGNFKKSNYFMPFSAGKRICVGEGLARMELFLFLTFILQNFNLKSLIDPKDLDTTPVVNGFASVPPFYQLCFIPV
Chain of Delta-type opioid receptor (Homo sapiens) (P41143 whole entry): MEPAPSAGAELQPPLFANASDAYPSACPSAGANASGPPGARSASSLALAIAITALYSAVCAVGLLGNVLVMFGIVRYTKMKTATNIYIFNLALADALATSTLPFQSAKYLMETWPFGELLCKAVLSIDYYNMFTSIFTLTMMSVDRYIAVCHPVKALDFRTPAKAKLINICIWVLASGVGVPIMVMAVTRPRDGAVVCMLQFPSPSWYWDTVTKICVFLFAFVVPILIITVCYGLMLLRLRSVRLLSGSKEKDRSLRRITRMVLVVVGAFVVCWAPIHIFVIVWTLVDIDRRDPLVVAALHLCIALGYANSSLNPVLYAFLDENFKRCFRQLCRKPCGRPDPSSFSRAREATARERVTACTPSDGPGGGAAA
Chain of Cysteinyl leukotriene receptor 2 (Homo sapiens) (Q9NS75 whole entry): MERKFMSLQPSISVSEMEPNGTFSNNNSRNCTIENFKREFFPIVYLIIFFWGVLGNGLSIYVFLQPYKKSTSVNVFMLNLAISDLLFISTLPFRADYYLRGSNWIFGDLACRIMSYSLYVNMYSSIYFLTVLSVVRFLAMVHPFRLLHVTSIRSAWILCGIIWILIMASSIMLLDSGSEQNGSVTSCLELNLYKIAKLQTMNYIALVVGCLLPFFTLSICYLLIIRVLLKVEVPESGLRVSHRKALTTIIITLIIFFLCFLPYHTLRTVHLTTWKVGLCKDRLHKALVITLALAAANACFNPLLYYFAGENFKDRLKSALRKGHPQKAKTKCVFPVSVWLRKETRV
Chain of 5-hydroxytryptamine receptor 4 (Homo sapiens) (Q13639 whole entry): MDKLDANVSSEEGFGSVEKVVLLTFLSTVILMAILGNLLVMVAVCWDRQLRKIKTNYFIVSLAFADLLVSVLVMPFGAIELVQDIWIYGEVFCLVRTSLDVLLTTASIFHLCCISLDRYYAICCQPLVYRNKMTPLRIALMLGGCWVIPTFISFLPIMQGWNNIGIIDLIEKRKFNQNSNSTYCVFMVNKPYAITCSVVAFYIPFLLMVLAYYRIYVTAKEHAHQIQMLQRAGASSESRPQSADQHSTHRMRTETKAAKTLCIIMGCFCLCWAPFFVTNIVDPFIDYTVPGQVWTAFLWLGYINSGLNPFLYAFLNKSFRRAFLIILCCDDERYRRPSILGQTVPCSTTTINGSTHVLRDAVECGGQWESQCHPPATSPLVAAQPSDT
Chain of Cannabinoid receptor 1 (Homo sapiens) (P21554 whole entry): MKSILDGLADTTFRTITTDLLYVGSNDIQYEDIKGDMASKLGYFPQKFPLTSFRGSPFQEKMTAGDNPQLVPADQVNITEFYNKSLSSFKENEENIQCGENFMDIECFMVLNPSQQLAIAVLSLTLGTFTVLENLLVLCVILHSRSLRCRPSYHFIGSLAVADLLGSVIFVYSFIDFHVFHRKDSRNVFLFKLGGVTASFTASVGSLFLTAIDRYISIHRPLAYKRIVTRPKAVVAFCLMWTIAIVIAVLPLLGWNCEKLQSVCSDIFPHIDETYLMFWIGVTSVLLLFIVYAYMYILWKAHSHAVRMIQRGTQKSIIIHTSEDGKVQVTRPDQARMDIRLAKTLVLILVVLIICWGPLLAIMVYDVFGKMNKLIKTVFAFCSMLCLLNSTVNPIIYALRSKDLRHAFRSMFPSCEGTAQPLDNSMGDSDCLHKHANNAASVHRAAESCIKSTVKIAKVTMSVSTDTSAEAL
Chain of Nociceptin receptor (Homo sapiens) (P41146 whole entry): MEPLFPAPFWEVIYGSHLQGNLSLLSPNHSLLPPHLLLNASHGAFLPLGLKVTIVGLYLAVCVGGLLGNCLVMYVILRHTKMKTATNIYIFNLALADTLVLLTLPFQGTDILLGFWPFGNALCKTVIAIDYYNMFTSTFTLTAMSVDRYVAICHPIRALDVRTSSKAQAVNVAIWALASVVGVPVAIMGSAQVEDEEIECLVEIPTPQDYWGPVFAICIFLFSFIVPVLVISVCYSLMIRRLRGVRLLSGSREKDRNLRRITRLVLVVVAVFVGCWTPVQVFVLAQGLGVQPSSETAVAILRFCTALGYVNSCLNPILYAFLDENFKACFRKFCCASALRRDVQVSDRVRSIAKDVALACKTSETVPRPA
Chain of Histamine H1 receptor (Homo sapiens) (P35367 whole entry): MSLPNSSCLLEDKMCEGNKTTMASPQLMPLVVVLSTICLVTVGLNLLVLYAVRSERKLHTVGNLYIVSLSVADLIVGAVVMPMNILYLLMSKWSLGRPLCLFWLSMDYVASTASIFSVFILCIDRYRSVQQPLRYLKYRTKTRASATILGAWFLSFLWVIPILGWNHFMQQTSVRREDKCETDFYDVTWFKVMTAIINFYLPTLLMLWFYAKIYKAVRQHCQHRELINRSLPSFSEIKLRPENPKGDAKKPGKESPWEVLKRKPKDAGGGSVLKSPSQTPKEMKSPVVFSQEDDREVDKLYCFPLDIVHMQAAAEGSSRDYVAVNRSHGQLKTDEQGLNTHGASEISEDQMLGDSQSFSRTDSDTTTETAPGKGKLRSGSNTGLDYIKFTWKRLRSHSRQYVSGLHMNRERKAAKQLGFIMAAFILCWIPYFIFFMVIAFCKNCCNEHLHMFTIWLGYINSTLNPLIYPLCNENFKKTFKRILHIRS
Chain of Neuropeptide Y receptor type 2 (Homo sapiens) (P49146 whole entry): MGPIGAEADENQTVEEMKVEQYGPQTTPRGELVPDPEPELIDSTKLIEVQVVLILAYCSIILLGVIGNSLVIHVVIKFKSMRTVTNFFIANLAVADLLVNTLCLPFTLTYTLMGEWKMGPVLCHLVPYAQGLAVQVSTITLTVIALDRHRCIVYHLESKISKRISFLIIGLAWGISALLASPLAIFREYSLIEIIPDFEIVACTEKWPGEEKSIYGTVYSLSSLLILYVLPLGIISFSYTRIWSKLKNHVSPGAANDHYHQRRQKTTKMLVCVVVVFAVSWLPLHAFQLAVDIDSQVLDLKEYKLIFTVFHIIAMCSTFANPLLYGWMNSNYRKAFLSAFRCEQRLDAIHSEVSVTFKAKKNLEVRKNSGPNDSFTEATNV
Chain of Cysteinyl leukotriene receptor 1 (Homo sapiens) (Q9Y271 whole entry): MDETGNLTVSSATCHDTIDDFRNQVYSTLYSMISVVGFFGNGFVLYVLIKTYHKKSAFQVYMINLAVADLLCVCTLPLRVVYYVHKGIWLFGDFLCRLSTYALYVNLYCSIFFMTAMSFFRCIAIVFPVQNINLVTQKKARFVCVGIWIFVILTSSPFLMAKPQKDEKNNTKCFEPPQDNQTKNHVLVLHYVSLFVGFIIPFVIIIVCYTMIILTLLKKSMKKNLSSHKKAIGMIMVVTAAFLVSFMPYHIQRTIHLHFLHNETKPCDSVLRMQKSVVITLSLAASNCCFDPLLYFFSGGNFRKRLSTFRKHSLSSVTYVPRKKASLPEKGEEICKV
Chain of P2Y purinoceptor 1 (Homo sapiens) (P47900 whole entry): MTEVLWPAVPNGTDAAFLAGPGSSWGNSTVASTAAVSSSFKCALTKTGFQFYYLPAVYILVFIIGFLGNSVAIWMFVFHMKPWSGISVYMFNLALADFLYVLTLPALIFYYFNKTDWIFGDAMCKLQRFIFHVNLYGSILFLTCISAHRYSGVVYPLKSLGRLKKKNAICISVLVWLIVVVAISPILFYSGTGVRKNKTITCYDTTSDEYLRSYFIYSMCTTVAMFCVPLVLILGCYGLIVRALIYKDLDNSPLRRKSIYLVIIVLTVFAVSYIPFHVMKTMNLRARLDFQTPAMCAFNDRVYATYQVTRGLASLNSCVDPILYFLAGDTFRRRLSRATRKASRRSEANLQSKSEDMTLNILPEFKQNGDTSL
Chain of D(1A) dopamine receptor (Homo sapiens) (P21728 whole entry): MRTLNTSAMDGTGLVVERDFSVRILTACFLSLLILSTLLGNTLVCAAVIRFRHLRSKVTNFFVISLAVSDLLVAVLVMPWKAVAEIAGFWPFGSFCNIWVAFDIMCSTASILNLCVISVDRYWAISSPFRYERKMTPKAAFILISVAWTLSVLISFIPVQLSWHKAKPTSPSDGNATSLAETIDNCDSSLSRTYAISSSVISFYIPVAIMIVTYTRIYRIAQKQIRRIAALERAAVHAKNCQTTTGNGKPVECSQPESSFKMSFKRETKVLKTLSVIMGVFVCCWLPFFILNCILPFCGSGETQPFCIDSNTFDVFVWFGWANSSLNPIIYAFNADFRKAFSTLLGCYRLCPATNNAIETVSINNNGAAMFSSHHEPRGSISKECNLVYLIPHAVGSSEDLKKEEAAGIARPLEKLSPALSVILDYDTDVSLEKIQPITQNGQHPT
Chain of Kappa-type opioid receptor (Homo sapiens) (P41145 whole entry): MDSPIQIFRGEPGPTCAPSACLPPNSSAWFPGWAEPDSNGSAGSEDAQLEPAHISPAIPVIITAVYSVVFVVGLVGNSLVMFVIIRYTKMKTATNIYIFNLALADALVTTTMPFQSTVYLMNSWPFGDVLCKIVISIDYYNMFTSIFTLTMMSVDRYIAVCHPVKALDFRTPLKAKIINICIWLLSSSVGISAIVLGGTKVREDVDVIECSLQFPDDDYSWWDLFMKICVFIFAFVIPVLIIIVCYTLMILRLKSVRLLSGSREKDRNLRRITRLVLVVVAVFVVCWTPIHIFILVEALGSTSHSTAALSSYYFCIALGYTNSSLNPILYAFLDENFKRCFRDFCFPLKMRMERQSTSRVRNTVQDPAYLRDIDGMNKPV

CCOC(=O)N1[C@@H]2CC[C@H]1C[C@H](CN1CC[C@@H](N3Cc4ccccc4NC3=O)C1)C2
Activity [1]: 81% | Activity [2]: 49% | IC50 (Cytochrome P450 1A2): > 2000 nM | IC50 (Cytochrome P450 2C19): > 2000 nM | Activity [3]: -0.04% | Activity [4]: 1.66% | Activity [5]: 0.49% | Activity (CHO): 0.7% | Activity [6]: 0.45% | Activity [7]: -0.04% | Activity [8]: 0.23% | Activity [9]: -1.42% | Activity [10]: 0.39% | Activity [11]: -0.18% | inhibition [12]: 2.25% | inhibition [13]: 6.45% | inhibition [14]: 0.18% | inhibition [15]: 5.59% | inhibition [16]: 18.8% | inhibition [17]: -1.91% | inhibition [18]: 1.33% | inhibition [19]: 1.04% | inhibition [20]: -5.25% | inhibition [21]: 0.91% | Activity [22]: -0.01%
